# Assays:
# MCF-7 = assay: MTT antiproliferative assay, MCF-7; assay type: cell-based, human; conditions: for inhibition at 100 µM / IC50: Homo sapiens, MCF7; for inhibition at 100 µM: read-out: % Growth Inhibition at 100 μM MCF-7
# Method: (§1) The antiproliferative activity of the title compounds against the panel of six different human cancer cell lines, viz. lung (A549), cervix (HeLa), liver (HepG-2), liver (BEL7402), colorectal (HCT116), and breast (MCF-7) cell lines, was evaluated using a standard MTT-based colorimetric assay. All cell lines were obtained from the Key Laboratory of Natural Resources and Functional Molecules of the Changbai Mountain (Yanbian University) and maintained in Dulbecco’s modified Eagle’s medium (DMEM) and RPMI Media 1640 (RPMI1640), supplemented with 10% foetal bovine serum (FBS) at 37 °C in a humidified atmosphere containing 5% CO2.
# (§2) Cells were plated in 96-well plates at appropriate densities to ensure exponential growth throughout the experimental period (9 × 10^3 cells per well), and then allowed to adhere for 24 h. Cells were then treated for 48 h with each compound. After 48 h of incubation, 10 μL of MTT solution were added to each well to a final concentration of 2 mg·mL^−1. Plates were then incubated for a further 4 h. After incubation, the MTT solution was removed and 150 μL of DMSO were added to each well for coloration. The plates were shaken vigorously for 10 min at room temperature to ensure complete solubilisation. The optometric density (OD) was read on a microplate reader (EL × 800, BioTek, Highland Park, Winooski, VT, USA) at 492 nm, and the data were subsequently analysed. The percentage of cell growth inhibition was calculated from the following equation:Inhibitory rate (%) = [1 − (ODtreated − ODblank)/(ODcontrol − ODblank)] × 100.
# (§3) To obtain the antiproliferative activity of compounds 2a–2w, the compounds were selected in the same way with four serial concentrations (1, 10, 50 and 100 μM) of those compounds. The optometric density (OD) reading was then used to calculate the IC50.
# Hela = assay: MTT antiproliferative assay, Hela; assay type: cell-based, human; conditions: for inhibition at 100 µM / IC50: Homo sapiens; for inhibition at 100 µM: read-out: % Growth Inhibition at 100 μM Hela; for IC50: HeLa
# Method: as §1, §2, §3
# [1] = tested on: human normal liver (L02) cells; assay: MTT assay on normal cell line L02; assay type: cell-based; conditions: for inhibition at 100 µM / IC50: Homo sapiens, L02; for inhibition at 100 µM: read-out: % Growth Inhibition at 100 μM L02; for IC50: normal cell line
# A549 = assay: MTT antiproliferative assay, A549; assay type: cell-based, human; conditions: for inhibition at 100 µM / IC50: Homo sapiens, A549; for inhibition at 100 µM: read-out: % Growth Inhibition at 100 μM A549
# Method: as §1, §2, §3
# HepG-2 = assay: MTT antiproliferative assay, HepG-2; assay type: cell-based, human; conditions: for inhibition at 100 µM / IC50: Homo sapiens, HepG2; for inhibition at 100 µM: read-out: % Growth Inhibition at 100 μM HepG-2; for Selectivity Index HepG-2: IC50 on normal cells (L02)/IC50 on tumour cells
# Method: as §1, §2, §3
# HCT116 = assay: MTT antiproliferative assay, HCT116; assay type: cell-based, human; conditions: for inhibition at 100 µM / IC50: Homo sapiens, HCT-116; for inhibition at 100 µM: read-out: % Growth Inhibition at 100 μM HCT116; for Selectivity Index HCT116: IC50 on normal cells (L02)/IC50 on tumour cells
# Method: as §1, §2, §3
# BEL7402 = assay: MTT antiproliferative assay, BEL7402; assay type: cell-based, human; conditions: for inhibition at 100 µM / IC50: Homo sapiens, Bel-7402; for inhibition at 100 µM: read-out: % Growth Inhibition at 100 μM BEL7402
# Method: as §1, §2, §3
# HepG-2 cells [2] = assay: Cell cycle analysis by flow cytometry (PI); assay type: cell-based, human; conditions: 48 h, control 11.47%
# Method: HepG-2 cells were plated in […] (5.0 × 10^5 cells per well) and incubated at 37 °C for 12 h. Exponentially growing cells were then incubated with compound 2n at different concentrations (5, 10 and 20 μM). After 48 h, untreated cells (control) or cells treated with compound 2n were centrifuged at 1000 rpm (177 g) for 10 min, and then fixed in 70% ethanol at −20 °C for at least 24 h. The cells were subsequently resuspended in phosphate-buffered saline (PBS) containing 0.1mg mL^−1 RNase A and 5 μg·mL^−1 propidium iodide (PI). The cellular DNA content for the cell cycle distribution analysis was measured by flow cytometry using a FACS Calibur flow cytometer with Cell Quest software (Becton-Dickinson, Franklin Lakes, NJ, USA), plotting at least 30,000 events per sample. The percentage of cells in the G1, S and G2 phases of the cell cycle were determined using the ModFit LT V4.0 software package (Verity Software, Topsham, ME, USA).
# HepG-2 cells [3] = assay: Apoptosis analysis by flow cytometry (annexin V-FITC/PI); assay type: cell-based, human; conditions: 48 h, control 13.65%
# Method: Apoptosis was detected using an Apoptosis Detection Kit (Invitrogen, Eugene, OR, USA). In brief, cells were cultured in […] (5.0 × 10^5 cells per well) and incubated at 37 °C for 12 h. Cells with exponential growth were then incubated with compound 2n at different concentrations (5, 10 and 20 μM). Following 48 h of incubation, the cells were collected, washed twice with PBS and once with 1binding buffer, and then stained with […] of annexin V-FITC and […] of PI (5 mg·mL^−1) in 1 × binding buffer for 30 min at 20 °C in the dark. Apoptotic cells were enumerated using a FACSCalibur flow cytometer with Cell Quest software (Becton–Dickinso, Franklin Lakes, NJ, USA).
# [4] = 100 μM, 48 h, MTT, normal cells
# [5] = IC50 on normal cells (L02)/IC50 on tumour cells
smiles,measurement,setting,value
"C[C@]12CC[C@H](O)CC1=CC[C@@H]1[C@@H]2CC[C@]2(C)C(=O)CC[C@@H]12 [DHEA, Dehydroepiandrosterone]",inhibition at 100 µM,"MCF-7; 100 μM, 48 h, MTT",17.1%
same,inhibition at 100 µM,"Hela; 100 μM, 48 h, MTT",15.7%
same,inhibition at 100 µM,[1]; [4],44.6%
same,inhibition at 100 µM,"A549; 100 μM, 48 h, MTT",24.8%
same,inhibition at 100 µM,"HepG-2; 100 μM, 48 h, MTT",10.9%
same,inhibition at 100 µM,"HCT116; 100 μM, 48 h, MTT",47.3%
same,inhibition at 100 µM,"BEL7402; 100 μM, 48 h, MTT",46.5%
"CC12CCC3C(CC=C4CC(O)CCC43C)C1C/C(=C\c1cn(-c3cccc(F)c3)nn1)C2=O (stereo not shown) [Compound 2c, (E)-16-((1-(3-fluorophenyl)-1H-1,2,3-triazol-4-yl)methylene)-3-hydroxy-10,13-dimethyl-1,3,4,7,8,9,10,11,12,13,15,16-dodecahydro-2H-cyclopenta[a]phenanthren-17(14H)-one]",inhibition at 100 µM,"MCF-7; 100 μM, 48 h, MTT",31.2%
same,IC50,"MCF-7; 48 h, MTT",> 100 µM
same,IC50,"Hela; 48 h, MTT",83.5 µM
same,inhibition at 100 µM,"Hela; 100 μM, 48 h, MTT",55.2%
same,Selectivity Index Hela,Hela; [5],0.99
same,inhibition at 100 µM,[1]; [4],79.3%
same,IC50,"[1]; 48 h, MTT",83.4 µM
same,inhibition at 100 µM,"A549; 100 μM, 48 h, MTT",60.5%
same,IC50,"A549; 48 h, MTT",51.6 µM
same,Selectivity Index A549,A549; [5],1.61
same,inhibition at 100 µM,"HepG-2; 100 μM, 48 h, MTT",78.8%
same,IC50,"HepG-2; 48 h, MTT",11.1 µM
same,Selectivity Index HepG-2,HepG-2,7.53
same,inhibition at 100 µM,"HCT116; 100 μM, 48 h, MTT",78.3%
same,IC50,"HCT116; 48 h, MTT",26.3 µM
same,Selectivity Index HCT116,HCT116,3.17
same,inhibition at 100 µM,"BEL7402; 100 μM, 48 h, MTT",66.7%
same,IC50,"BEL7402; 48 h, MTT",68.9 µM
same,Selectivity Index BEL7402,BEL7402; [5],1.21
"CC12CCC3C(CC=C4CC(O)CCC43C)C1C/C(=C\c1cn(-c3cccc(I)c3)nn1)C2=O (stereo not shown) [Compound 2m, (E)-3-hydroxy-16-((1-(3-iodophenyl)-1H-1,2,3-triazol-4-yl)methylene)-10,13-dim-ethyl-1,3,4,7,8,9,10,11,12,13,15,16-dodecahydro-2H-cyclopenta[a]phenanthren-17(14H)-one]",% Growth Inhibition at 100 μM MCF-7,"MCF-7; 100 μM, 48 h, MTT",NA (NA: antiproliferative activity <5%)
same,% Growth Inhibition at 100 μM Hela,"Hela; 100 μM, 48 h, MTT",NA (NA: antiproliferative activity <5%)
same,% Growth Inhibition at 100 μM L02,[1]; [4],NA (NA: antiproliferative activity <5%)
same,% Growth Inhibition at 100 μM A549,"A549; 100 μM, 48 h, MTT",NA (NA: antiproliferative activity <5%)
same,% Growth Inhibition at 100 μM HepG-2,"HepG-2; 100 μM, 48 h, MTT",NA (NA: antiproliferative activity <5%)
same,% Growth Inhibition at 100 μM HCT116,"HCT116; 100 μM, 48 h, MTT",7.6%
same,% Growth Inhibition at 100 μM BEL7402,"BEL7402; 100 μM, 48 h, MTT",14.1%
"CC12CCC3C(CC=C4CC(O)CCC43C)C1C/C(=C\c1cn(-c3ccc(Cl)cc3)nn1)C2=O (stereo not shown) [Compound 2g, (E)-16-((1-(4-chlorophenyl)-1H-1,2,3-triazol-4-yl)methylene)-3-hydroxy-10,13-dimethyl-1,3,4,7,8,9,10,11,12,13,15,16-dodecahydro-2H-cyclopenta[a]phenanthren-17(14H)-one]",inhibition at 100 µM,"MCF-7; 100 μM, 48 h, MTT",39.9%
same,IC50,"MCF-7; 48 h, MTT",> 100 µM
same,IC50,"Hela; 48 h, MTT",57.3 µM
same,inhibition at 100 µM,"Hela; 100 μM, 48 h, MTT",62.8%
same,inhibition at 100 µM,[1]; [4],40.9%
same,IC50,"[1]; 48 h, MTT",> 100 µM
same,inhibition at 100 µM,"A549; 100 μM, 48 h, MTT",69.8%
same,IC50,"A549; 48 h, MTT",37.4 µM
same,inhibition at 100 µM,"HepG-2; 100 μM, 48 h, MTT",32.5%
same,IC50,"HepG-2; 48 h, MTT",> 100 µM
same,inhibition at 100 µM,"HCT116; 100 μM, 48 h, MTT",78.7%
same,IC50,"HCT116; 48 h, MTT",23.4 µM
same,inhibition at 100 µM,"BEL7402; 100 μM, 48 h, MTT",66.9%
same,IC50,"BEL7402; 48 h, MTT",58.2 µM
"CC12CCC3C(CC=C4CC(O)CCC43C)C1C/C(=C\c1cn(-c3ccc(I)cc3)nn1)C2=O (stereo not shown) [Compound 2n, (E)-3-hydroxy-16-((1-(4-iodophenyl)-1H-1,2,3-triazol-4-yl)methylene)-10,13-dimethyl-1,3,4,7,8,9,10,11,12,13,15,16-dodecahydro-2H-cyclopenta[a]phenanthren-17(14H)-one]",inhibition at 100 µM,"MCF-7; 100 μM, 48 h, MTT",81.3%
same,IC50,"MCF-7; 48 h, MTT",9.18 µM
same,Selectivity Index MCF-7,MCF-7; [5],>10.89
same,IC50,"Hela; 48 h, MTT",> 100 µM
same,inhibition at 100 µM,"Hela; 100 μM, 48 h, MTT",17.3%
same,proportion of cells in the G2 phase,"HepG-2 cells [2]; HepG-2, 5.0 µM",11.14%
same,proportion of cells in the G2 phase,"HepG-2 cells [2]; HepG-2, 10.0 µM",0.41%
same,proportion of cells in the G2 phase,"HepG-2 cells [2]; HepG-2, 20.0 µM",0.0%
same,percentage of total apoptotic cells (right quadrants),"HepG-2 cells [3]; HepG-2, 5.0 µM",22.24%
same,percentage of total apoptotic cells (right quadrants),"HepG-2 cells [3]; HepG-2, 10.0 µM",27.24%
same,inhibition at 100 µM,[1]; [4],34.2%
same,IC50,"[1]; 48 h, MTT",> 100 µM
same,toxicity in human normal liver (L02) cells,[1]; in words,not toxic
same,inhibition at 100 µM,"A549; 100 μM, 48 h, MTT",46.8%
same,IC50,"A549; 48 h, MTT",> 100 µM
same,inhibition at 100 µM,"HepG-2; 100 μM, 48 h, MTT",83%
same,IC50,"HepG-2; 48 h, MTT",9.1 µM
same,Selectivity Index HepG-2,HepG-2,>10.99
same,inhibition at 100 µM,"HCT116; 100 μM, 48 h, MTT",65.5%
same,IC50,"HCT116; 48 h, MTT",31 µM
same,Selectivity Index HCT116,HCT116,>3.22
same,inhibition at 100 µM,"BEL7402; 100 μM, 48 h, MTT",< 5%
same,IC50,"BEL7402; 48 h, MTT",> 100 µM
